The term KD denotes the constant that tells how readily two partners part at equilibrium. Low readings indicate higher affinity, high ones lower affinity. In general, Kd refers to the free concentration of one partner at which half of the binding sites on the other are occupied at equilibrium, for simple one-to-one binding.

Data set [1] has as its system TAMRA-(CUG)6 (RNA, repeat) CUGCUGCUGCUGCUGCUG
As to the kind of experiment: fluorescence titration. Particulars: PBS 1x (137 mM NaCl, 2.7 mM KCl); PBS pH 7.4, 20 °C; 20 nM RNA.

Data set [2] concerns the target T1, MBNL1N, Cy3-labeled (UniProt Q9NR56 1-253).
T1 sequence: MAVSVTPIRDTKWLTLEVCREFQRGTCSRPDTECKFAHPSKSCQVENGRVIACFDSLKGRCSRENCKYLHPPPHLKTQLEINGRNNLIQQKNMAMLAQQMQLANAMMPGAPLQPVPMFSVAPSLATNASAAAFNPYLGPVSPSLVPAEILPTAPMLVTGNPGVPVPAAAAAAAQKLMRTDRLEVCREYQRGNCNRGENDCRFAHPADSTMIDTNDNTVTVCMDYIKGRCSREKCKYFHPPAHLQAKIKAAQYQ
The data set can be described thus: single-molecule TIRFM.

In turn, `CNC(=O)c1ccc2nc3ccccc3c(NCCCCNc3nc(N)nc(N)n3)c2c1` had a KD in data set [1] of 66 ± 2 µM.

In data set [1], `Nc1nc(N)nc(NCCCCNc2c3ccccc3nc3c(C(=O)NCCCNCCCNCCCNC(=O)c4cccc5c(NCCCCNc6nc(N)nc(N)n6)c6ccccc6nc45)cccc23)n1` displayed a KD of 0.318 ± 0.015 µM.

B1: (CUG)4 TIRF construct (structured_RNA)
RNA: GCUGCUGUUCGCUGCUG
modifications: 3' TEG-biotin
B1: the Kd in data set [2] is 3.1 ± 0.1 nM.

The record behind these values is PMC3711446 (2013).
